The numbers were not newly measured in patent US9949942B2, “Sustained release delivery of active agents to treat glaucoma and ocular hypertension” (Mati Therapeutics Inc., priority 0208, dated 2018), which cites them from elsewhere.

For data set [1] the following is noted: man; after topical administration.
Assay in data set [2]: not given
This is another data set of the same source.

In the case of `CC(C)OC(=O)CCC/C=C\C[C@@H]1[C@@H](CC[C@@H](O)CCc2ccccc2)[C@H](O)C[C@@H]1O` [Latanoprost, isopropyl-(Z)-7[(1R,2R,3R,5S)3,5-dihydroxy-2-[(3R)-3-hydroxy-5-phenylpentyl]cyclopentyl]-5-heptenoate], where the note is “clinical trials”, the “frequency of retinal artery embolus, retinal detachment, vitreous hemorrhage from diabetic retinopathy” value is “rarely reported”; the “rate of upper respiratory tract infection/cold/flu (most common systemic adverse events)” value is listed as “approximately 4%”; the “subjects requiring discontinuation of therapy because of intolerance to conjunctival hyperemia” value is “Less than 1%”. Where the note is “conjunctivitis, diplopia, discharge from the eye”, the “ocular adverse events: subjects affected” value is given as “Less than 1%”. Also, the “time to peak concentration in the aqueous humor” value in data set [1] is listed as “about two”. In addition, in data set [2] (acetone, ethanol, ethyl acetate, isopropanol, methanol, octanol), the “solubility in acetone, ethanol, ethyl acetate, isopropanol, methanol and octanol” value is “freely soluble”. Also, in data set [2] (acetonitrile), the solubility in acetonitrile entry was “very soluble”. Besides, the solubility in water result in data set [2] (water) is given as “practically insoluble”.
